In patent US10428080B2, “TBK/IKK inhibitor compounds and uses thereof” (Merck Patent GmbH, priority 2015, dated 2019) one finds IC50 data, which are given here for 16 molecules.

In general, pIC50 refers to the negative decadic logarithm of the IC50, by convention in mol/L.

The target of one test is T1, TBK1 (Homo sapiens, UniProt Q9UHD2).
T1 sequence (Q9UHD2 1-729): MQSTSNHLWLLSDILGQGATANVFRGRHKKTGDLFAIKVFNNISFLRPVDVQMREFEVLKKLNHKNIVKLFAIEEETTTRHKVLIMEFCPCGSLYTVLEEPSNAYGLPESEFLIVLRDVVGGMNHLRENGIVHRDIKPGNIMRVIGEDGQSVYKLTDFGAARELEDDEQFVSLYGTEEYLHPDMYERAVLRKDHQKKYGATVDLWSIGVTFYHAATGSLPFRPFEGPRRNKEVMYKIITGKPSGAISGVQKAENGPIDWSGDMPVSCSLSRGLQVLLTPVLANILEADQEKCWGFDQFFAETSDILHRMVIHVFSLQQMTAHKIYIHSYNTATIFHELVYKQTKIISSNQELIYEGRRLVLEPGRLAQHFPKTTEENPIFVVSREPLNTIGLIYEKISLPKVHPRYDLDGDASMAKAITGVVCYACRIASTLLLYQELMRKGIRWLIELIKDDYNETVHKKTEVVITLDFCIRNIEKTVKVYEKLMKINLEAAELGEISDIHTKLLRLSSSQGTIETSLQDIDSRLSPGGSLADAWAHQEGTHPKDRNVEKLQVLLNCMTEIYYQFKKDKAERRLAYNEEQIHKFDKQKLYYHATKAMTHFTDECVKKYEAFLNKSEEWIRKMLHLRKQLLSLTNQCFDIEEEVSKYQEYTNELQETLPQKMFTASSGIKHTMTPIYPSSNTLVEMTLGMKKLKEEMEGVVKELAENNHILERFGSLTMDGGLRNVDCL
As to the kind of experiment: TBK Biochemical Assay. The settings on record: read-out: TBK1 IC50. Summed up: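 TBK1 enzyme and substrate incubated with compounds (10-point 1:4 dilution, top 30 uM final, 1% DMSO) for 90 min at 25° C, then stopped. Substrate/product peaks read by microfluidic mobility-shift (Caliper LabChip); 10 uM staurosporine as full-inhibition control.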

The target in another test is T2, IKKε (Homo sapiens, UniProt Q14164).
T2 sequence (Q14164 1-716): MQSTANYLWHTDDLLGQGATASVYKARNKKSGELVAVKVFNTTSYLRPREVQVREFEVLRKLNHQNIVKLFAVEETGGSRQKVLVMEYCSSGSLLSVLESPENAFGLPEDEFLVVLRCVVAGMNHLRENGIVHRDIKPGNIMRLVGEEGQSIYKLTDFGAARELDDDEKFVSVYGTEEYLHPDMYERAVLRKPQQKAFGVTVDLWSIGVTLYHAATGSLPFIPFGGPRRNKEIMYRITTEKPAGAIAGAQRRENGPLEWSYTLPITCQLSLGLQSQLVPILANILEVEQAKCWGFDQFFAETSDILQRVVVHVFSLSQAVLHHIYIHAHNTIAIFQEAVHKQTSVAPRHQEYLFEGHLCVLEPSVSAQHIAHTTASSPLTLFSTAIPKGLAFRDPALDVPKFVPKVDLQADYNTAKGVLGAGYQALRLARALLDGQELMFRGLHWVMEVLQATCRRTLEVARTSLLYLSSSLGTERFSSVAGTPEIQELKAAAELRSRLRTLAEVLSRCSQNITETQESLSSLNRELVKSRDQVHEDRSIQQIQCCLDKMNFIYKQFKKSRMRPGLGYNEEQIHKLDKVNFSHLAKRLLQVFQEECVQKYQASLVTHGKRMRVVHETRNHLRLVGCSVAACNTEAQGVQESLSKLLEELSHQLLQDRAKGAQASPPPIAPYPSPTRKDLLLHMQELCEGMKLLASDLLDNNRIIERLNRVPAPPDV
Nature of the test: IKKe Biochemical Assay. Particulars: read-out: IKKε IC50. Summed up:
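Recombinant IKKε and substrate were incubated with compound (10-point 1:4 series, top 30 uM final, 1% DMSO) for 90 min at 25° C, then stopped. Substrate-to-product conversion was read by LabChip microfluidic mobility shift; 10 uM staurosporine served as full-inhibition wells.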

Test [1] relates to phosphorylation of the IRF-3 protein in MDA-MB-468 cells. Nature of the test: pIRF3 immunocytochemistry cell based assay. Put shortly: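 MDA-MB-468 cells got compounds (10-point, 3-fold from 10 uM) for 1 h at 37 °C, then 10 ug/ml Poly(I:C) for 2 h. Fixed, permeabilized cells were immunostained for pIRF3 with AlexaFluor488 and counterstained with PI. % phosphorylation was read by laser scanning cytometry, and IC50 curves were fitted.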

[2] abbreviates: Homo sapiens, MDA-MB-468 cells, Poly(I:C) stimulation, read-out: pIRF3 IC50.

pIC50: −log10 of the molar value. Read-outs that look alike come from different tables or passages of the source.

For the molecule `COc1cc(C(=O)N2CC[C@@H](N(C)C)C2)ncc1-c1cc2nccc(-c3ccc(N4CC[C@@H](F)C4)c(C#N)c3)c2o1` [Compound 459, 5-[2-(6-[[(3R)-3-(dimethylamino)pyrrolidin-1-yl]carbonyl]-4-methoxypyridin-3-yl)furo[3,2-b]pyridin-7-yl]-2-[(3R)-3-fluoropyrrolidin-1-yl]benzonitrile], the negative-log IC50 (pIC50) (at TBK1; at IKKε; in test [1] (setting [2])) was over 7.00 in each case.

`COc1cc(C(=O)N2CCN(C)CC2)cnc1-c1cc2nccc(-c3ccc(N4CCC(F)C4)c(C#N)c3)c2o1` (stereo not drawn) [Compound 460, 2-(3-fluoropyrrolidin-1-yl)-5-(2-[3-methoxy-5-[(4-methylpiperazin-1-yl)carbonyl]pyridin-2-yl]furo[3,2-b]pyridin-7-yl)benzonitrile]: the negative-log IC50 (pIC50) is over 7.00 on TBK1, over 7.00 on IKKε and 6.00 to 7.00 in test [1] (setting [2]).

Consider `COc1cc(C(=O)N2CCN(C)CC2)cnc1-c1cc2nccc(-c3ccc(N4CC[C@H](F)C4)c(C#N)c3)c2o1` [Compound 461, 2-(3(S)-fluoropyrrolidin-1-yl)-5-(2-[3-methoxy-5-[(4-methylpiperazin-1-yl)carbonyl]pyridin-2-yl]furo[3,2-b]pyridin-7-yl)benzonitrile], for which the pIC50 (on TBK1; at IKKε; in test [1] (setting [2])) was over 7.00 in each case.

On to `COc1cc(C(=O)N2CCN(C)CC2)cnc1-c1cc2nccc(-c3ccc(N4CC[C@@H](F)C4)c(C#N)c3)c2o1` [Compound 462, 2-(3(R)-fluoropyrrolidin-1-yl)-5-(2-[3-methoxy-5-[(4-methylpiperazin-1-yl)carbonyl]pyridin-2-yl]furo[3,2-b]pyridin-7-yl)benzonitrile], for which the pIC50 (on TBK1; at IKKε; in test [1] (setting [2])) was over 7.00 throughout.

For `COc1cc(C(=O)N2CCN(C)CC2)ncc1-c1cc2nccc(-c3ccc(N4CC[C@H](F)C4)c(C#N)c3)c2o1` [Compound 463, 2-((S)-3-Fluoro-pyrrolidin-1-yl)-5-{2-[4-methoxy-6-(4-methyl-piperazine-1-carbonyl)-pyridin-3-yl]-furo[3,2-b]pyridin-7-yl}-benzonitrile], the pIC50 (on TBK1; on IKKε; in test [1] (setting [2])) was over 7.00 each time.

As for `COc1cc(C(=O)NC2C3COCC32)cnc1-c1cc2nccc(-c3ccc(N4CC[C@@H](F)C4)c(C#N)c3)c2o1` (stereo partly drawn) [Compound 466, 6-{7-[3-Cyano-4-((R)-3-fluoro-pyrrolidin-1-yl)-phenyl]-furo[3,2-b]pyridin-2-yl}-5-methoxy-N-(3-oxa-bicyclo[3.1.0]hex-6-yl)-nicotinamide], the figures for the negative-log IC50 (pIC50) (at TBK1; on IKKε; in test [1] (setting [2])) were over 7.00, over 7.00 and 6.00 to 7.00, respectively.

Regarding `COc1cc(C(=O)NC2C3COCC32)cnc1-c1cc2nccc(-c3ccc(N4CC[C@H](F)C4)c(C#N)c3)c2o1` (stereo partly drawn) [Compound 467, 6-{7-[3-Cyano-4-((S)-3-fluoro-pyrrolidin-1-yl)-phenyl]-furo[3,2-b]pyridin-2-yl}-5-methoxy-N-(3-oxa-bicyclo[3.1.0]hex-6-yl)-nicotinamide], the negative logarithm of the IC50 (pIC50) at TBK1 was over 7.00; on IKKε it was over 7.00; in test [1] (MDA-MB-468 cells, Poly(I:C) stimulation, read-out: pIRF3 IC50), 6.00 to 7.00.

As for `COc1cc(-c2cc3nccc(-c4ccc(OC5CCOCC5)c(C#N)c4)c3o2)ccc1C(=O)N(C)C` [Compound 470, 4-[7-[3-cyano-4-(oxan-4-yloxy)phenyl]furo[3,2-b]pyridin-2-yl]-2-methoxy-N,N-dimethylbenzamide], the pIC50 at TBK1 was over 7.00; at IKKε it was over 7.00; in test [1] (Homo sapiens, MDA-MB-468, read-out: pIRF3 IC50), 6.00 to 7.00.

In the case of `COc1cc(C(=O)N(C)C)ccc1-c1cc2nccc(-c3ccc(NC4CC(C)(C)OC(C)(C)C4)c(C#N)c3)c2o1` [Compound 471, 4-(7-[3-cyano-4-[(2,2,6,6-tetramethyloxan-4-yl)amino]phenyl]furo[3,2-b]pyridin-2-yl)-3-methoxy-N,N-dimethylbenzamide], the negative logarithm of the IC50 (pIC50) was 6.00 to 7.00 on TBK1, 6.00 to 7.00 at IKKε and 5.30 to 6.00 in test [1] (setting [2]).

Turning to `COc1cc(C(=O)N(C)C2CN3CCC2CC3)ccc1-c1cc2nccc(-c3ccc(OC4CCOCC4)c(C#N)c3)c2o1` (stereo not drawn) [Compound 472, N-(1-Aza-bicyclo[2.2.2]oct-3-yl)-4-{7-[3-cyano-4-(tetrahydro-pyran-4-yloxy)-phenyl]-furo[3,2-b]pyridin-2-yl}-3-methoxy-N-methyl-benzamide], the pIC50 (on TBK1; on IKKε; in test [1] (setting [2])) was over 7.00 throughout.

`COc1cc(C(=O)N(C)CCN2CCCC2)ccc1-c1cc2nccc(-c3ccc(OC4CCOCC4)c(C#N)c3)c2o1` [Compound 473, 4-{7-[3-Cyano-4-(tetrahydro-pyran-4-yloxy)-phenyl]-furo[3,2-b]pyridin-2-yl}-3-methoxy-N-methyl-N-(2-pyrrolidin-1-yl-ethyl)-benzamide]: the pIC50 (on TBK1; at IKKε; in test [1] (setting [2])) was over 7.00 each time.

As to `COc1cc(C(=O)N2CC3C2CCN3C)ccc1-c1cc2nccc(-c3ccc(OC4CCOCC4)c(C#N)c3)c2o1` (stereo not drawn) [Compound 474, 5-{2-[2-Methoxy-4-(2-methyl-2,6-diaza-bicyclo[3.2.0]heptane-6-carbonyl)-phenyl]-furo[3,2-b]pyridin-7-yl}-2-(tetrahydro-pyran-4-yloxy)-benzonitrile], the pIC50 (on TBK1; at IKKε; in test [1] (setting [2])) was over 7.00 each time.

On to `COc1cc(C(=O)NC2(CO)CCCC2)ccc1-c1cc2nccc(-c3ccc(OC4CCOCC4)c(C#N)c3)c2o1` [Compound 475, 4-{7-[3-Cyano-4-(tetrahydro-pyran-4-yloxy)-phenyl]-furo[3,2-b]pyridin-2-yl}-N-(1-hydroxymethyl-cyclopentyl)-3-methoxy-benzamide], for which the results for the negative logarithm of the IC50 (pIC50) (on TBK1; at IKKε; in test [1] (setting [2])) were over 7.00, over 7.00 and 6.00 to 7.00, respectively.

Take `COc1cc(C(=O)N[C@H]2CCCC[C@H]2O)ccc1-c1cc2nccc(-c3ccc(OC4CCOCC4)c(C#N)c3)c2o1` [Compound 476, 4-{7-[3-Cyano-4-(tetrahydro-pyran-4-yloxy)-phenyl]-furo[3,2-b]pyridin-2-yl}-N-((1S,2R)-2-hydroxy-cyclohexyl)-3-methoxy-benzamide]: the negative logarithm of the IC50 (pIC50) at TBK1 is over 7.00; at IKKε, over 7.00; in test [1] (setting [2]), 6.00 to 7.00.

As for `COc1cc(C(=O)NCCN2CCC2)ccc1-c1cc2nccc(-c3ccc(OC4CCOCC4)c(C#N)c3)c2o1` [Compound 477, N-(2-Azetidin-1-yl-ethyl)-4-{7-[3-cyano-4-(tetrahydro-pyran-4-yloxy)-phenyl]-furo[3,2-b]pyridin-2-yl}-3-methoxy-benzamide], the negative logarithm of the IC50 (pIC50) was over 7.00 at TBK1, over 7.00 on IKKε and 6.00 to 7.00 in test [1] (setting [2]).

Regarding `COc1cc(C(=O)N2CCCCN2C)ccc1-c1cc2nccc(-c3ccc(OC4CCOCC4)c(C#N)c3)c2o1` [Compound 478, 5-{2-[2-Methoxy-4-(2-methyl-tetrahydro-pyridazine-1-carbonyl)-phenyl]-furo[3,2-b]pyridin-7-yl}-2-(tetrahydro-pyran-4-yloxy)-benzonitrile], the values for the pIC50 (on TBK1; on IKKε; in test [1] (setting [2])) were over 7.00, over 7.00 and 6.00 to 7.00, respectively.
